Laboratory results taken from the NIST ThermoML archive (doi:10.1016/j.jct.2008.08.007).
± gives the expanded uncertainty stated by the source.

Test: molar heat capacity at constant pressure
Conditions: 101.33 kPa, Crystal, Small sample (50 mg) DSC

SMILES	molar heat capacity at constant pressure (288.15 K)	molar heat capacity at constant pressure (293.15 K)	molar heat capacity at constant pressure (298.15 K)	molar heat capacity at constant pressure (303.15 K)	molar heat capacity at constant pressure (308.15 K)	molar heat capacity at constant pressure (313.15 K)	molar heat capacity at constant pressure (318.15 K)	molar heat capacity at constant pressure (323.15 K)	molar heat capacity at constant pressure (328.15 K)	molar heat capacity at constant pressure (333.15 K)	molar heat capacity at constant pressure (338.15 K)	molar heat capacity at constant pressure (343.15 K)	molar heat capacity at constant pressure (348.15 K)	molar heat capacity at constant pressure (353.15 K)	molar heat capacity at constant pressure (358.15 K)
O.OC[C@H]1O[C@@H](O[C@H]2[C@H](O)[C@@H](O)[C@@H](O)O[C@@H]2CO)[C@H](O)[C@@H](O)[C@H]1O [α-D-lactose hydrate]	400.9 ± 9 J/K/mol	426.9 ± 9.9 J/K/mol	435.8 ± 9.8 J/K/mol	440.7 ± 9.8 J/K/mol	446.4 ± 9 J/K/mol	450 ± 9.2 J/K/mol	452.2 ± 9.2 J/K/mol	459.8 ± 9.1 J/K/mol	464.5 ± 9 J/K/mol	468.3 ± 8.9 J/K/mol	477.1 ± 9.2 J/K/mol	488.2 ± 10 J/K/mol	497.7 ± 9.9 J/K/mol	506.8 ± 10 J/K/mol	522.7 ± 10 J/K/mol
CC(=O)N[C@@H](C=O)[C@@H](O)[C@H](O)[C@H](O)CO [N-acetyl-D-glucosamine]	269.8 ± 5.8 J/K/mol	276.4 ± 5.7 J/K/mol	276.9 ± 6 J/K/mol	278 ± 6.7 J/K/mol	283.3 ± 6.4 J/K/mol	281 ± 7 J/K/mol	281.4 ± 7.2 J/K/mol	292.7 ± 7.3 J/K/mol	293.1 ± 7 J/K/mol	299.4 ± 6.9 J/K/mol	303.8 ± 6.9 J/K/mol	308.7 ± 6.8 J/K/mol	319.7 ± 6.6 J/K/mol	325.2 ± 6.5 J/K/mol	332 ± 6.4 J/K/mol
CO[C@H]1O[C@H](CO)[C@@H](O)[C@H](O)[C@H]1O [methyl-α-D-glucopyranoside]	232.1 ± 4.3 J/K/mol	231 ± 4.3 J/K/mol	233.7 ± 4.5 J/K/mol	235.7 ± 4.6 J/K/mol	240.7 ± 4.8 J/K/mol	247.5 ± 4.9 J/K/mol	255.9 ± 5 J/K/mol	264.7 ± 5.3 J/K/mol	274.2 ± 5.6 J/K/mol	283.6 ± 5 J/K/mol	293.4 ± 5.6 J/K/mol	302.9 ± 5.1 J/K/mol	311.5 ± 5.2 J/K/mol	319 ± 5.2 J/K/mol	325.5 ± 5.4 J/K/mol
O=C[C@H](O)[C@@H](O)[C@H](O[C@H]1O[C@H](CO)[C@@H](O[C@H]2O[C@H](CO)[C@@H](O)[C@H](O)[C@H]2O)[C@H](O)[C@H]1O)[C@H](O)CO [maltotriose]	638.3 ± 10 J/K/mol	654 ± 10 J/K/mol	662.5 ± 10 J/K/mol	662.7 ± 11 J/K/mol	666.3 ± 11 J/K/mol	676.9 ± 12 J/K/mol	683.9 ± 12 J/K/mol	698.2 ± 12 J/K/mol	707.4 ± 12 J/K/mol	718.6 ± 13 J/K/mol	736.3 ± 12 J/K/mol	753.8 ± 13 J/K/mol	773.2 ± 13 J/K/mol	787.3 ± 13 J/K/mol	823.7 ± 14 J/K/mol
OC[C@H]1OC(O)C[C@@H](O)[C@@H]1O (stereo partly drawn) [2-deoxy-D-glucose]	189.6 ± 6 J/K/mol	195.8 ± 6.4 J/K/mol	200.2 ± 5.9 J/K/mol	201 ± 5.9 J/K/mol	204.5 ± 6 J/K/mol	206.9 ± 6.1 J/K/mol	209 ± 5.6 J/K/mol	213.6 ± 5.2 J/K/mol	214.7 ± 5.3 J/K/mol	218.4 ± 5.5 J/K/mol	224.9 ± 5.4 J/K/mol	226.4 ± 4 J/K/mol	233 ± 3.9 J/K/mol	235.4 ± 4.2 J/K/mol	244 ± 4.3 J/K/mol
OC[C@H]1O[C@H](O)[C@H](O)[C@@H](O)[C@@H]1O [α-D-glucose]	210.2 ± 6.5 J/K/mol	214.8 ± 5.3 J/K/mol	219.9 ± 6.1 J/K/mol	222.8 ± 5.3 J/K/mol	226.5 ± 5.8 J/K/mol	232.6 ± 6.3 J/K/mol	235.8 ± 6.3 J/K/mol	240.5 ± 6.7 J/K/mol	242.1 ± 6.4 J/K/mol	246.2 ± 6.8 J/K/mol	250.5 ± 6.1 J/K/mol	255.2 ± 6.2 J/K/mol	260.4 ± 5.7 J/K/mol	262.4 ± 5.9 J/K/mol	267.7 ± 5.7 J/K/mol
O=C[C@H](O)[C@H](O)[C@H](O)CO [D-ribose]	171.3 ± 4.2 J/K/mol	179.4 ± 3.5 J/K/mol	183.2 ± 3.7 J/K/mol	188.8 ± 3.9 J/K/mol	193.9 ± 3.8 J/K/mol	201.3 ± 4 J/K/mol	209 ± 3.9 J/K/mol	224.6 ± 4.2 J/K/mol	245.1 ± 4.3 J/K/mol						
O=CC[C@H](O)[C@H](O)CO [2-deoxy-D-erythropentose]	171.9 ± 4.5 J/K/mol	167.6 ± 3.4 J/K/mol	162 ± 3.2 J/K/mol	163.6 ± 3.9 J/K/mol	171.7 ± 3.7 J/K/mol	178.4 ± 3.6 J/K/mol	184.1 ± 4.8 J/K/mol	197.4 ± 3.7 J/K/mol	222 ± 4.6 J/K/mol						
